Results from patent US11786543B2, “Compositions comprising decitabine and tetrahydrouridine and uses thereof” (The Board of Trustees of the University of Illinois, priority 2008, dated 2023).
Where “and” joins values, the source holds several entries; their conditions need not be identical. Equal entries are not always repeated. Entries after “also recorded” stand apart in the source; their conditions may differ.

Legend:
[1] = tested on: baboons; assay: Pharmacodynamic responses (HbF %, neutrophil counts) to decitabine with or without THU in baboons; assay type: in vivo, baboon; design: ANC nadir: unit not given here
Procedure: Fetal hemoglobin expression, HbF %, pre and post treatment with the indicated dose of decitabine. […] Oral treatment was with decitabine or a slightly modified decitabine (decitabine-mesylate—Dac-m).
Decitabine was administered at the doses indicated in two consecutive blocks of 5 days each. THU at the indicated doses was administered 60 minutes before each decitabine dose.

[2] = tested on: normal hematopoietic precursors; assay: Cell cycle status (propidium iodide flow cytometry)
[3] = cited from earlier work
[4] = tested on: MA9 xenograft model of human leukemia; assay: MA9 xenograft model of human leukemia, survival; assay type: in vivo, mice; conditions: intraperitoneal decitabine alone, I mg/m^2 3×/week
Procedure: The MA9 xenograft model of human leukemia was treated with intraperitoneal decitabine alone (I mg/m^2 3×/week). Decitabine increased survival by approximately 20%, but all mice succumbed to leukemia (FIG. 10). […] CDA is the most important pharmacologic barrier to successful translation of in vitro findings into in vivo therapy. The invention addresses this barrier to effective clinical translation of the in vitro observations.

[5] = tested on: normal CD34+ cells; assay: Cell counts, morphology and colony formation; assay type: cell-based
Description: (§1) The Kasumi-1 cell-line is derived from a patient with AMLI-ETO leukemia and represents a late-stage model of transformation and malignant evolution.

[6] = tested on: CD34 AMLI-ETO cells; assay: Cell counts, morphology and colony formation; assay type: cell-based
Description: as §1

[7] = tested on: solid tumor cell-lines (renal cancer, small cell lung cancer, hepatocellular cancer, prostate cancer, bladder cancer); assay: Differentiation of solid tumor cell-lines; assay type: cell-based; conditions: decitabine 0.5 μM
[8] = tested on: Reno-1 renal cell cancer xenograft
Procedure: In an effort to apply the proposed formulation and regimen to treat different cancer histologies, a renal cell cancer cell-line (Reno-1) was developed from a surgical sample of renal cancer and used in a xeno-transplantation experiment. […] The percentage of necrosis in each tissue section was evaluated in a blinded fashion.

[9] = tested on: normal CD34+ hematopoietic cells; assay: DNA damage (Fast Micromethod for DNA scission, γH2AX flow cytometry); conditions: for DNA damage (Fast Micro-method for DNA scission, γH2AX): decitabine 0.5 μM D1,3,5, Ara-C 0.5 μM D1,3,5, hydroxyurea 500 μM D1-5, measured D6
[10] = tested on: PUER cells; assay: PUER model of Pu.1-mediated differentiation; assay type: cell-based, murine
Description: Terminal differentiation is critically dependent on lineage-determining transcription factors such as PU.1. […] The murine PUER cell-line is derived from Pu.1 knock-out cells, which have been transduced with a retroviral vector which expresses Pu.1 fused to the estrogen-receptor. Addition of the estrogen agonist tamoxifen (OHT) to these cells causes Pu.1 to be functionally reintroduced into the cell through translocation into the nucleus, and triggers terminal differentiation.
Flow cytometry was used to measure F4/80 as a marker of terminal macrophage differentiation and c-Kit as marker of stem-cells.

[11] = tested on: primary leukemia cells from patients; conditions: decitabine 0.5 μM added 2×/week
[12] = tested on: Reno-1 cells; assay: Morphology of Giemsa-stained Reno-1 cells cultured with decitabine; assay type: cell-based
[13] = cited from earlier work; remark: listed apart in the source
[14] = tested on: subjects with HU refractory SCD; conditions: cited from earlier work
[15] = tested on: Kasumi-1 cells; assay: Cell counts and morphology; assay type: cell-based, human
Description: as §1

[16] = target: DNMTI (Homo sapiens, UniProt P26358); assay: DNMTI depletion, Q-dot immunofluorescence assay in normal CD34+ hematopoietic precursor cells; assay type: cell-based; design: Normal CD34+ hematopoietic precursor cells were isolated from cord-blood; endogenous in cells; host or cells: normal human CD34+ hematopoietic precursor cells from cord blood
Procedure: Decitabine is shown herein to deplete DNMTI without causing measurable DNA damage. Decitabine at a concentration of 0.2-0.5 μM depletes DNMTI in normal hematopoietic precursor cells (data not shown). Normal CD34+ hematopoietic precursor cells were isolated from cord-blood. A Q-dot based immunofluorescence assay quantifies DNMTI depletion by various doses of decitabine. Q-dot conjugated 2° ab against anti-DNMTI 1° ab allows quantification of DNMTI depletion in normal human CD34+ hematopoietic cells exposed to various levels of decitabine. DNMTI was quantified in 500 cells for each treatment condition. DAPI was used to stain the nuclei Image-quant software is used to quantify the DNMTI by the Mean Intensity Fluorescence (MIF) variable. Decitabine levels were assessed in μM.
The kinetics of DNMTI depletion and recovery in normal hematopoietic precursors exposed to a IX addition of DAC 0.5 μM. DNMTI was quantified with a Q dot-based assay. Nuclei were stained with DAPI. […] Measurement was performed on D6.

[17] = tested on: SCD patients; conditions: human, in vivo; cited from earlier work
[18] = tested on: normal hematopoietic precursors; assay type: cell-based; conditions: DAC 0.5 μM, equimolar Ara-C, clinically relevant levels of HU; measured D6
[19] = Oral 9.35 mg/kg/d, individual baboons, listed as Dac, 9.35 mg/kg/day
[20] = Oral 18.7 mg/kg/d, individual baboons
[21] = SQ 0.52 mg/kg/d, individual baboons, listed as Dac
[22] = non-DNA-damaging DNMTI-depleting decitabine
[23] = last 20 of 36 wks, individual subjects
[24] = last 20 weeks, base-line 3.12 ± 2.75

Chain of DNMTI (P26358 whole entry): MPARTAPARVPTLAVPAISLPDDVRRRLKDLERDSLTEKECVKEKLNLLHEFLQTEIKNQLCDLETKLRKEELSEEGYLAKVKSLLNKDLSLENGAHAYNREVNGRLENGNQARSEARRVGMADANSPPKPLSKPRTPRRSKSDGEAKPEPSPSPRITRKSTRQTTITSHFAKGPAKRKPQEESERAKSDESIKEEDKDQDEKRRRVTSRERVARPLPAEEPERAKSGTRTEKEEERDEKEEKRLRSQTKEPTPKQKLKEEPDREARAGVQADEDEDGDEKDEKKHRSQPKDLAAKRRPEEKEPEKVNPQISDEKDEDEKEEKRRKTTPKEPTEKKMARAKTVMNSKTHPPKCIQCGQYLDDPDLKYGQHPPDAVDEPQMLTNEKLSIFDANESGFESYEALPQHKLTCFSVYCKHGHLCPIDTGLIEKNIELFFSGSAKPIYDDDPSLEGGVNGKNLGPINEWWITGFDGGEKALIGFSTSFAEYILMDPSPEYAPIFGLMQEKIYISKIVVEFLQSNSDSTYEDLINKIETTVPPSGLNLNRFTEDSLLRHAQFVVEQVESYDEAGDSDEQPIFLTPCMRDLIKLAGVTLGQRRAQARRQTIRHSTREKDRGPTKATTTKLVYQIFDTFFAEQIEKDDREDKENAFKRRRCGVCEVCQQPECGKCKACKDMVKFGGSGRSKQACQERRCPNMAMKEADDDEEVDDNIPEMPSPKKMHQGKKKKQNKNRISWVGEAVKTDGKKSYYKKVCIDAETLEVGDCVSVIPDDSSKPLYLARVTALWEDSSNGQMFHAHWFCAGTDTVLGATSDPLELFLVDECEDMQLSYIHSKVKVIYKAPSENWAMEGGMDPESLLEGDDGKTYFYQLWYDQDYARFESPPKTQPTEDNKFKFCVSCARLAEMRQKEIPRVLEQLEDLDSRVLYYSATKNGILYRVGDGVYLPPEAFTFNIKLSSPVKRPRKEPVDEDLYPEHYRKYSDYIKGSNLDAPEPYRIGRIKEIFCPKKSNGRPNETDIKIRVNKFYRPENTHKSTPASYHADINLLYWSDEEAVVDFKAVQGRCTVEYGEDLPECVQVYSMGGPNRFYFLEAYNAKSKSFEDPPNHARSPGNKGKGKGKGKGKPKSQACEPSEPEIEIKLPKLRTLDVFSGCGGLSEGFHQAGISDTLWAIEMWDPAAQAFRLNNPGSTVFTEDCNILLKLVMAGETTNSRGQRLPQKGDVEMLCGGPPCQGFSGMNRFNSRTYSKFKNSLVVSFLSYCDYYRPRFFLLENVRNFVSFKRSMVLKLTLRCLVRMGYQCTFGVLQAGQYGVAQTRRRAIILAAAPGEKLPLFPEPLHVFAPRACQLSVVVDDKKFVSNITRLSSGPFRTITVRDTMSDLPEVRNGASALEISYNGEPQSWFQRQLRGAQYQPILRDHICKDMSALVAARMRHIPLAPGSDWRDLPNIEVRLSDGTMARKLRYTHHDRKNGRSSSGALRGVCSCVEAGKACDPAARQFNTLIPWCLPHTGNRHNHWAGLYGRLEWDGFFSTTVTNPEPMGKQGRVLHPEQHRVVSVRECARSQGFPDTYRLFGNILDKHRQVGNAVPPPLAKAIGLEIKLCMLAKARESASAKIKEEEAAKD

For Nc1ncn([C@H]2C[C@H](O)[C@@H](CO)O2)c(=O)n1 [Decitabine, 5-aza-2′-deoxycytidine], the Post-HbF % ([1]; Oral 0.3 mg/kg/d 60 minutes after oral THU 20 mg/kg, baboon 6974) was 28.4%, the Post-HbF % ([1]; Oral 1.42 mg/kg/d 60 minutes after oral THU 20 mg/kg, baboon 7001) was 61.6% and the Post-HbF % ([1]; Oral 9.35 mg/kg/d without THU, two blocks of 5 days, individual baboons, listed as Dac, 9.35 mg/kg/day) was 17.4% and 40.5%. For the same compound, the ANC nadir [1, 19] was 1331 and 749, the Post-HbF % [1, 19] was 17.4% and 72.0% and the ANC nadir [1, 20] was 1969. For the same compound, the Post-HbF % [1, 20] was 68.1%, the ANC nadir [1, 21] was 1491 and 524 and 1320 and 1668 and the Post-HbF % [1, 21] was 66.1% and 86.3% and 76.3% and 68.8%. The “time of rebound increase in S-phase/G2M after drug exposure” value [2] was “approximately 48 h”, the cell cycle effect ([2]; non-DNA-damaging, DNMTI-depleting levels) was “transient cell-cycle arrest followed by rebound hyperproliferation” and the half-life in vivo [3] was < 0.333 h. The increase in survival [4] was “approximately 20%”, the colony-forming ability [5] was “maintains colony-forming ability” and the morphology ([5]; data not shown) was “retained primitive morphology”. The cell counts ([5]; non-DNA-damaging DNMTI-depleting decitabine, Ara-C equimolar) was “proliferation of normal cells”, the morphology [6] was “morphologically differentiated” and the colony forming ability ([6]; data not shown) was “colony forming ability is abrogated”. For the same compound, the cell counts [6, 22] was “leukemia cells decline”, the “differentiation (morphologic changes)” value [7] was “terminally differentiated” and the “early apoptosis (Annexin staining)” value [7] was “did not cause early apoptosis”. The tumor volume ([8]; SQ 3×/week, I mg/ni2, starting on Day 9, p<0.001 vs PBS or Sunitinib) was “significantly decreased tumor volume”, the “necrosis in H&E stained tumor sections” value ([8]; data not shown) was “demonstrated necrosis” and the “toxicity in the mice (weight, appearance, blood counts)” value ([8]; mouse, in vivo) was “without evidence of toxicity”. For the same compound, the “DAC concentration required to induce measurable DNA damage” value ([9]; 24 hours after exposure, γH2AX, Fast Micromethod) was > 0.5 µM, the “DNA damage and apoptosis” value ([9]; DAC 1 μM) was “caused measurable DNA damage and apoptosis” and the “DNA damage (γH2AX, Fast Micromethod) or apoptosis (annexin)” value ([9]; DAC up to 0.5 μM) was “did not cause measurable DNA damage”. For the same compound, the “DNA damage (H2AX) in combination with THU” value ([9]; DAC up to 0.5 μM with THU 0.1 or 100 μM, 24 hours, listed as DAC) was “did not cause significant DNA damage; also recorded: did not significantly increase DNA damage”, the “DNA damage (Fast Micro-method for DNA scission, γH2AX)” value [9] was “does not cause measurable DNA damage” and the DNA damage ([9]; decitabine 1.0 μM) was “causes measurable DNA damage”. The gene expression ([10]; decitabine added 6 hours after OHT) was “increased pro-differentiation gene expression”, the differentiation and proliferation ([10]; decitabine added concurrent with Pu.1 activation (OHT)) was “impaired Pu.1-mediated terminal differentiation and preserved some cell proliferation” and the “terminal myelomonocytic differentiation (Giemsa staining)” value [11] was 12 of 14. For the same compound, the “cell morphology in vitro” value [12] was “increase in size and demonstrate prominent nuclear chromatin clumps”, the in vitro half-life [13] was 5 to 9 h and the ANC nadir ([14]; at optimal drug dose for each subject) was > 1.5e+09 L⁻¹. For the same compound, the “individual maximal F-cell numbers, range” value ([14]; during the trial) was 58-87%, the “maximal F-cell numbers, average over all 7 subjects” value ([14]; during the trial) was 69±10.12% and the non-hematologic toxicity ([14]; in vivo) was “no non-hematologic toxicity occurred”. The “HbF Avg” value ([14]; last 20 of 36 wks, IV 0.3 mg/kg/day cycles, individual subjects, 0.3 mg/kg/day) was 10.80 ± 2.05% and 16.42 ± 2.81% and 16.70 ± 2.55% and 12.40 ± 1.25% and 14.55 ± 1.32% and 12.75 ± 2.28%, the “HbF Max” value [14, 23] was 14.4% (2×) and 24.6% and 23.2% and 16.3% and 17.2% and the “Total Hemoglobin Avg” value [14, 23] was 8.28 ± 0.52 g/dL and 8.91 ± 0.57 g/dL and 8.92 ± 0.79 g/dL and 9.05 ± 0.48 g/dL and 9.37 ± 0.60 g/dL and 8.34 ± 0.55 g/dL. The “Total Hemoglobin Max” value [14, 23] was 9.0 g/dL and 9.6 g/dL (2×) and 10.4 g/dL and 10.3 g/dL and 9.5 g/dL, the “average ANC” value ([14]; last 20 weeks of treatment, pretreatment 4.6±1.56) was 4.2±1.35 ×109/L and the “HbF Avg, Mean ± SD of subjects” value [14, 24] was 13.93±2.35%. The “HbF Max, Mean ± SD of subjects” value [14, 24] was 18.35% and 18.35 ± 4.46%, the “Total Hemoglobin Avg, Mean ± SD of subjects” value ([14]; last 20 weeks) was 8.81 ± 0.42 g/dL and the “Total Hemoglobin Max, Mean ± SD of subjects” value ([14]; last 20 weeks) was 9.7 ± 0.53 g/dL and 9.73 ± 0.53 g/dL. The “lowest ANC” value ([14]; two HU non-responder subjects) was ≥ 2e+09 L⁻¹, the morphology [15] was “morphologically differentiated” and the cell counts [15, 22] was “leukemia cells decline”. The “threshold concentration required to deplete DNMT” value [16] was “approximately 0.2 μM” and the “decitabine concentration that depletes DNMTI” value ([16]; normal hematopoietic precursor cells, data not shown) was 0.2 to 0.5 µM.
For NC(=O)NO [hydroxyurea], the “HU compliant patients in whom HbF levels are not increased” value [17] is given as “approximately 40%”, the “DNA damage (Fast Micro-method for DNA scission, γH2AX)” value [9] is given as “cause significant DNA damage” and the “apoptosis (annexin V-FITC and 7AAD double staining)” value [18] is given as “cause significant apoptosis and cell-death”.
